# Measured values as given in PubChem BioAssay AID248 (DTP/NCI, 2004).
# Several values for one entry are separate records, joined by “and”; a condition that tells them apart may be missing. Equal entries are not always repeated. Inconclusive results and toxic doses are left out.
# Test system: L1210 leukemia ip in BDF1 mice, survival T/C
# Test: NCI In Vivo Anticancer Drug Screen. Data for tumor model L1210 Leukemia (intraperitoneal) in B6D2F1 (BDF1) mice
# Conditions: endpoint: mean survival time, higher = longer survival
# Method in brief: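 Tumor was transplanted into mice, which were then dosed with test compound or vehicle alone. Survival was recorded for each group, and the treated figure was expressed relative to the control figure.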
# [1] = dose: 100.0 mg/kg/injection, schedule: Q04DX003 (ip), vehicle: saline with Tween-80
# [2] = dose: 200.0 mg/kg/injection, schedule: Q04DX003 (ip), vehicle: saline with Tween-80
# [3] = dose: 400.0 mg/kg/injection, schedule: Q04DX003 (ip), vehicle: saline with Tween-80
# [4] = dose: 100.0 mg/kg/injection, schedule: Q01DX009 (ip), vehicle: saline with Tween-80
# [5] = dose: 200.0 mg/kg/injection, schedule: Q01DX009 (ip), vehicle: saline with Tween-80
# [6] = dose: 400.0 mg/kg/injection, schedule: Q01DX009 (ip), vehicle: saline with Tween-80
# [7] = dose: 100.0 mg/kg/injection, schedule: Q04DX002 (ip), vehicle: Klucel (hydroxypropylcellulose) (HPC)
# [8] = dose: 100.0 mg/kg/injection, schedule: Q01DX009 (ip), vehicle: saline
# [9] = dose: 200.0 mg/kg/injection, schedule: Q01DX009 (ip), vehicle: saline
structure (smiles),measurement,setting,value
O=c1ccccn1CC1(c2ccccc2)OCCO1,T/C,"dose: 100.0 mg/kg/injection, schedule: Q01DX009 (ip), vehicle: Klucel (hydroxypropylcellulose) (HPC)",98 % of control
same,T/C,"dose: 100.0 mg/kg/injection, schedule: Q04DX003 (ip), vehicle: Klucel (hydroxypropylcellulose) (HPC)",102 % of control
same,T/C,"dose: 200.0 mg/kg/injection, schedule: Q01DX009 (ip), vehicle: Klucel (hydroxypropylcellulose) (HPC)",104 % of control
same,T/C,"dose: 200.0 mg/kg/injection, schedule: Q04DX003 (ip), vehicle: Klucel (hydroxypropylcellulose) (HPC)",96 % of control
same,T/C,"dose: 400.0 mg/kg/injection, schedule: Q01DX009 (ip), vehicle: Klucel (hydroxypropylcellulose) (HPC)",100 % of control
same,T/C,"dose: 400.0 mg/kg/injection, schedule: Q04DX003 (ip), vehicle: Klucel (hydroxypropylcellulose) (HPC)",94 % of control
O=C(NCO)NC1NC(=O)NC1=O (configuration not stated),T/C,[1],101 % of control
same,T/C,[2],101 % of control
same,T/C,[3],108 % of control
O=C(Nc1cccc(C(F)(F)F)c1)Nc1ccccn1,T/C,"dose: 100.0 mg/kg/injection, schedule: Q01DX009 (ip), vehicle: gum acacia",99 % of control
same,T/C,"dose: 200.0 mg/kg/injection, schedule: Q01DX009 (ip), vehicle: gum acacia",92 % of control
same,T/C,"dose: 400.0 mg/kg/injection, schedule: Q01DX009 (ip), vehicle: gum acacia",89 % of control
CCOC(=O)C(CCCO)C(=O)OCC,T/C,"dose: 100.0 mg/kg/injection, schedule: Q01DX001 (ip), vehicle: saline with Tween-80",98 % of control
same,T/C,"dose: 200.0 mg/kg/injection, schedule: Q01DX001 (ip), vehicle: saline with Tween-80",96 % of control
same,T/C,"dose: 400.0 mg/kg/injection, schedule: Q01DX001 (ip), vehicle: saline with Tween-80",91 % of control
Nc1c(Cl)cc(S(N)(=O)=O)cc1Cl,T/C,"dose: 100.0 mg/kg/injection, schedule: Q01DX009 (ip), vehicle: other",98 % of control
same,T/C,"dose: 100.0 mg/kg/injection, schedule: Q04DX003 (ip), vehicle: other",100 % of control
same,T/C,"dose: 200.0 mg/kg/injection, schedule: Q01DX009 (ip), vehicle: other",91 % of control
same,T/C,"dose: 200.0 mg/kg/injection, schedule: Q04DX003 (ip), vehicle: other",98 % of control
same,T/C,"dose: 400.0 mg/kg/injection, schedule: Q04DX003 (ip), vehicle: other",98 % of control
CCCCCCCCCCCSCCSCCSCCCCCCCCCCC,T/C,"dose: 100.0 mg/kg/injection, schedule: Q01DX001 (ip), vehicle: Klucel (hydroxypropylcellulose) (HPC)",88 % of control
same,T/C,"dose: 200.0 mg/kg/injection, schedule: Q01DX001 (ip), vehicle: Klucel (hydroxypropylcellulose) (HPC)",95 % of control
same,T/C,"dose: 400.0 mg/kg/injection, schedule: Q01DX001 (ip), vehicle: Klucel (hydroxypropylcellulose) (HPC)",90 % of control
Nc1[nH]nc2nccnc12,T/C,[4],103 % of control
same,T/C,[1],96 % of control
same,T/C,[5],98 % of control
same,T/C,[2],97 % of control
same,T/C,[6],95 % of control
same,T/C,[3],102 % of control
CS(=O)(=O)c1ccc(Br)cc1,T/C,[4],103 % of control
same,T/C,[1],90 % of control
same,T/C,[5],102 % of control
same,T/C,[2],98 % of control
same,T/C,[6],102 % of control
same,T/C,[3],96 % of control
CCN1CCc2cc3c(cc2C1)OCO3,T/C,"dose: 10.0 mg/kg/injection, schedule: Q01DX001 (ip), vehicle: carboxymethylcellulose (CMC)",98 % of control
same,T/C,"dose: 20.0 mg/kg/injection, schedule: Q01DX001 (ip), vehicle: carboxymethylcellulose (CMC)",93 % of control
same,T/C,"dose: 40.0 mg/kg/injection, schedule: Q01DX001 (ip), vehicle: carboxymethylcellulose (CMC)",94 % of control
same,T/C,"dose: 80.0 mg/kg/injection, schedule: Q01DX001 (ip), vehicle: carboxymethylcellulose (CMC)",96 % of control
COc1ccc(OC(=O)Nc2ccc(Cl)cc2[N+](=O)[O-])cc1,T/C,[4],95 % of control and 96 % of control
same,T/C,"dose: 100.0 mg/kg/injection, schedule: Q04DX002 (ip), vehicle: saline with Tween-80",95 % of control and 98 % of control
same,T/C,[1],97 % of control
same,T/C,[5],99 % of control and 106 % of control
same,T/C,"dose: 200.0 mg/kg/injection, schedule: Q04DX002 (ip), vehicle: saline with Tween-80",95 % of control and 101 % of control
same,T/C,[2],110 % of control
same,T/C,[6],99 % of control and 103 % of control
same,T/C,"dose: 400.0 mg/kg/injection, schedule: Q04DX002 (ip), vehicle: saline with Tween-80",95 % of control and 98 % of control
same,T/C,[3],100 % of control
Clc1ccc(Cl)c(Nc2ccnc(SCc3ccccc3)n2)c1,T/C,"dose: 100.0 mg/kg/injection, schedule: Q01DX Z (ip), vehicle: methylcellulose (MC)",92 % of control
same,T/C,"dose: 200.0 mg/kg/injection, schedule: Q01DX Z (ip), vehicle: methylcellulose (MC)",88 % of control
Nc1ccc(CC(=O)O)c(N)c1,T/C,[7],87 % of control
same,T/C,"dose: 200.0 mg/kg/injection, schedule: Q04DX002 (ip), vehicle: Klucel (hydroxypropylcellulose) (HPC)",97 % of control
same,T/C,"dose: 400.0 mg/kg/injection, schedule: Q04DX002 (ip), vehicle: Klucel (hydroxypropylcellulose) (HPC)",97 % of control
CC(=O)Nc1ncnc2c1ncn2Cc1ccccc1,T/C,[1],99 % of control
same,T/C,[2],93 % of control
COc1cc2c(cc1O)-c1cc3ccc(OC)c(OC)c3c[n+]1CC2,T/C,[7],103 % of control
CCC(=O)c1ccc(OCC(CN2CCN(c3ccccc3OC)CC2)OC(C)=O)cc1 (configuration not stated),T/C,[1],97 % of control
same,T/C,[2],105 % of control
same,T/C,[3],100 % of control
O=C1C=CC(=O)N1c1ccc([N+](=O)[O-])cc1,T/C,"dose: 0.78 mg/kg/injection, schedule: Q04DX003 (ip), vehicle: Klucel (hydroxypropylcellulose) (HPC)",107 % of control
same,T/C,"dose: 1.56 mg/kg/injection, schedule: Q01DX009 (ip), vehicle: Klucel (hydroxypropylcellulose) (HPC)",97 % of control
same,T/C,"dose: 1.56 mg/kg/injection, schedule: Q04DX003 (ip), vehicle: Klucel (hydroxypropylcellulose) (HPC)",93 % of control
same,T/C,"dose: 3.12 mg/kg/injection, schedule: Q01DX009 (ip), vehicle: Klucel (hydroxypropylcellulose) (HPC)",92 % of control
same,T/C,"dose: 3.12 mg/kg/injection, schedule: Q04DX003 (ip), vehicle: Klucel (hydroxypropylcellulose) (HPC)",91 % of control
same,T/C,"dose: 6.25 mg/kg/injection, schedule: Q01DX009 (ip), vehicle: Klucel (hydroxypropylcellulose) (HPC)",92 % of control
same,T/C,"dose: 6.25 mg/kg/injection, schedule: Q04DX003 (ip), vehicle: Klucel (hydroxypropylcellulose) (HPC)",92 % of control
same,T/C,"dose: 9.2 mg/kg/injection, schedule: Q01DX009 (ip), vehicle: Klucel (hydroxypropylcellulose) (HPC)",92 % of control
same,T/C,"dose: 14.0 mg/kg/injection, schedule: Q01DX009 (ip), vehicle: Klucel (hydroxypropylcellulose) (HPC)",90 % of control
same,T/C,"dose: 21.0 mg/kg/injection, schedule: Q01DX009 (ip), vehicle: Klucel (hydroxypropylcellulose) (HPC)",95 % of control
CCC(CC)NCCOC(=O)c1ccc(N)cc1,T/C,"dose: 75.0 mg/kg/injection, schedule: Q01DX001 (ip), vehicle: saline",100 % of control
same,T/C,"dose: 150.0 mg/kg/injection, schedule: Q01DX001 (ip), vehicle: saline",98 % of control
C/C(=C/c1ccccc1)S(=O)(=O)c1ccccc1,T/C,"dose: 100.0 mg/kg/injection, schedule: Q01DX001 (ip), vehicle: saline",105 % of control
same,T/C,[8],91 % of control
same,T/C,"dose: 200.0 mg/kg/injection, schedule: Q01DX001 (ip), vehicle: saline",100 % of control
same,T/C,[9],94 % of control
same,T/C,"dose: 400.0 mg/kg/injection, schedule: Q01DX001 (ip), vehicle: saline",105 % of control
same,T/C,"dose: 400.0 mg/kg/injection, schedule: Q01DX009 (ip), vehicle: saline",93 % of control
O=NN(C(=O)Nc1ccccc1)C1CCCCC1,T/C,"dose: 18.0 mg/kg/injection, schedule: Q01DX001 (ip), vehicle: carboxymethylcellulose (CMC)",96 % of control
same,T/C,"dose: 37.0 mg/kg/injection, schedule: Q01DX001 (ip), vehicle: carboxymethylcellulose (CMC)",94 % of control
same,T/C,"dose: 75.0 mg/kg/injection, schedule: Q01DX001 (ip), vehicle: carboxymethylcellulose (CMC)",98 % of control
same,T/C,"dose: 100.0 mg/kg/injection, schedule: Q01DX001 (ip), vehicle: carboxymethylcellulose (CMC)",105 % of control
same,T/C,"dose: 150.0 mg/kg/injection, schedule: Q01DX001 (ip), vehicle: carboxymethylcellulose (CMC)",102 % of control
same,T/C,"dose: 200.0 mg/kg/injection, schedule: Q01DX001 (ip), vehicle: carboxymethylcellulose (CMC)",104 % of control
same,T/C,"dose: 250.0 mg/kg/injection, schedule: Q01DX001 (ip), vehicle: carboxymethylcellulose (CMC)",102 % of control
CC([NH-])C(C)[NH-].[Cl][Pt+2][Cl] (configuration not stated),T/C,"dose: 3.1 mg/kg/injection, schedule: Q04DX002 (ip), vehicle: Klucel (hydroxypropylcellulose) (HPC)",124 % of control
same,T/C,"dose: 6.25 mg/kg/injection, schedule: Q04DX002 (ip), vehicle: Klucel (hydroxypropylcellulose) (HPC)",153 % of control
same,T/C,"dose: 25.0 mg/kg/injection, schedule: Q04DX002 (ip), vehicle: Klucel (hydroxypropylcellulose) (HPC)",92 % of control
CCN(CC)Cc1cc(N)ccc1O,T/C,[8],106 % of control
same,T/C,[9],89 % of control
CCOC(=O)CNC(=O)NCc1ccccc1,T/C,[4],106 % of control
same,T/C,[5],102 % of control
same,T/C,[6],105 % of control
